The assay concerns Apt-WO-06 (AWO-06) (DNA, aptamer) GTGAGTTTACATGGGGTCCTATAGGCGAACAATCG
Nature of the assay: graphene oxide fluorescence recovery. The conditions noted are these: buffer composition not stated; aptamer 0.5-30 nM titrated; displaced from graphene oxide; apparent.

For the compound `CC1COc2c(N3CCN(C)CC3)c(F)cc3c(=O)c(C(=O)O)cn1c23` (stereo not shown), the Kd amounted to 28.16 nM.

Source of the values: PMC10974795 (2024).
